From patent US20100325756A1, “PLASTID TRANSFORMATION UTILIZING ENDOGENOUS REGULATORY ELEMENTS” (priority 2009, published 2010)

What was measured:
Type in all cases: cell-based
[1] = system: L. sativa cultivar Evola (LE) leaf explants; experiment: Direct shoot regeneration from leaf explants, cultivar Evola (LE)
Description: (§1) Seeds of L. sativa cultivars (New England Seed Co., Hartford, Conn.) were disinfected in a solution of 30% commercial bleach with 0.01%, Tween-20 for 5 min, rinsed five times in sterile water and placed on half strength Murashige and Skoog (MS; Murashige and Skoog, 1962) medium solidified with 0.6% Phytablend® (Caisson, N. Logan, Utah). After 21 days, fully expanded first leaves were dissected into 0.8 cm^2 and placed adaxial side on the medium. The culture medium was composed of MS basal salts, 3% sucrose and 0.6% Phytablend. Plant growth regulators were added to the medium as shown in table 1 and pH was adjusted to 5.8 prior autoclaving. Cultures were maintained at 26±2° C. at 40 μE m^2 s^−1 photon density; 16 hrs light/8 hrs dark.

[2] = system: L. sativa cultivar Great Lake (LG) leaf explants; experiment: Direct shoot regeneration from leaf explants, cultivar Great Lake (LG)
Description: as §1

[3] = system: L. sativa cultivar Lentissima (LL) leaf explants; experiment: Direct shoot regeneration from leaf explants, cultivar Lentissima (LL)
Description: as §1

[4] = system: L. sativa cultivar Romaine (LR) leaf explants; experiment: Direct shoot regeneration from leaf explants, cultivar Romaine (LR)
Description: as §1

[5] = system: L. sativa cultivar Simpson Elite (LS) leaf explants; experiment: Direct shoot regeneration from leaf explants, cultivar Simpson Elite (LS)
Description: as §1

Measured: EFF: Number of regenerated shoots/total explants

c1ccc(CNc2ncnc3[nH]cnc23)cc1 [BAP]
0: [1]; BAP 0.1 μg ml^−1 alone | [2]; BAP 0.1 μg ml^−1 alone | [3]; BAP 0.1 μg ml^−1 alone | [4]; BAP 0.1 μg ml^−1 alone | [5]; BAP 0.1 μg ml^−1 alone

O=C(O)Cc1cccc2ccccc12 [NAA]
0: [1]; NAA 0.1 μg ml^−1 alone | [2]; NAA 0.1 μg ml^−1 alone | [3]; NAA 0.1 μg ml^−1 alone | [4]; NAA 0.1 μg ml^−1 alone | [5]; NAA 0.1 μg ml^−1 alone
